Key:
[1] = target: wild type PRC2 (wtPRC2) complex (Homo sapiens, UniProt Q15910); assay: EZH2 LC-MS Assay; assay type: biochemical; conditions: 40 nM wtPRC2 complex, 30 uM SAM, 1.5 uM H3K27me1 and 3 uM H3K27me3 peptides; SAH production
Protocol: Representative compounds of the invention were serially and separately diluted 3-fold in DMSO to obtain twelve concentrations. Then the test compounds at each concentration (120 nL of each) were transferred by Mosquito into a 384-well Perkin Elmer ProxiPlate 384 plus plates. Solutions (6 μL) of 80 nM wild type PRC2 (wtPRC2) complex and 60 µM SAM in reaction buffer (20 mM Tris, pH 8.0, 0.1% BSA, 0.01% Triton, 0.5 mM DTT) were added to the wells that were then incubated with the test compound for 20 min. A 6 μL solution of 3 µM of the substrate peptide H3K27me1 (histone H3 [21-44]-K27me1-biotin) and 6 μM regulatory peptide H3K27me3 (histone H3 [21-44]-K27me3) in reaction buffer was added to initiate each reaction. The final components in the reaction solution include 40 nM wtPRC2 complex, 30 µM SAM, 1.5 µM H3K27me1 and 3 µM H3K27me3 peptides with varying concentration of the compounds. A positive control consisted of the enzyme at 40 nM, 30 μM SAM, 1.5 µM H3K27me1 and 3 µM H3K27me3 in the absence of the test compound, and a negative control consisted of 30 µM SAM, 1.5 µM H3K27me1 and 3 μM H3K27me3 only. Each reaction was incubated at room temperature for 120 min, then stopped by addition of 3 μL per of quench solution (2.5% TFA with 320 nM d4-SAH). The reaction mixture was centrifuged (Eppendorf centrifuge 5810, Rotor A-4-62) for 2 min at 2000 rpm and read on an API 4000 triple quadrupole mass spec with Turbulon Spray (Applied Biosystem) coupled with Prominence UFLC (Shimadzu). The levels of SAH production were normalized based on the values coming from the positive and negative controls to give percent enzyme activities. The data were fit to a dose response equation using the program Helios to get the […] values of the test compound.

[2] = system: H3K27 methylation in G401 cell; assay: ELISA (H3K27 methylation) assay; assay type: cell-based; conditions: cultured 48 h with compound, normalized using H3 signal
Protocol: ELISA (H3K27 methylation) assay
Representative compounds of the invention were serially and separately diluted 3-fold in DO to obtain a total of eight or twelve concentrations. Then the compounds were added to G401 cell cultured in 384-well plate at 1:500 dilution to obtain the highest concentration of 20 μM. The cells were further cultured for 48 h before ELISA procedure.
Histone extraction: Cells, in 384-well plate, were washed with PBS (10 x PBS buffer (80 g NaCl (Sigma, S3014), 2 g KCl (Sigma, 60128), 14.4 g Na2HPO4 (Sigma, S5136), 2.4 g KH2PO4 (Sigma, P9791) to 1 L water, pH to 7.4) and lysed with the addition of lysis buffer (0.4N HCl; 45 μl per well). The plate was gently agitated at 4° C. for 30 min. The cell lysate was neutralized with neutralization buffer (0.5 M sodium phosphate dibasic, pH 12.5. 1 mM DTT; 36 µL per well). The plate was agitated to ensure the lysates were well mixed prior to the ELISA protocol.
ELISA protocol: Cell lysates were transferred to the wells of a 384-well plate and the final volume was adjusted to 50 μL per well with PBS. The plate was sealed, centrifuged at 2,000 rpm for 2 min and incubated at 4° C. for about 16 h. The plate was washed with TBST buffer (1 x TBS (10x TBS: 24.2 g Tris (Sigma, T6066), 80 g NaCl (Sigma, S3014) to 1 L of water and adjust pH to 7.6 with HCl) with 0.1% Tween-20). Blocking buffer (TBST, 5% BSA; 50 µL per well) was added and the plate was incubated for 1 h at rt. The blocking buffer was removed and primary antibody was added (30 μL per well). The following dilutions were performed with blocking buffer: for anti-H3K27me3 antibody (Cell Signaling Technology, #9733), dilution was 1:1000; for anti-H3K27me2 antibody (Cell Signaling Technology, #9288), dilution was 1:100; for anti-H3 antibody (Abcam, Cat #24834), dilution was 1:1000. The primary antibody was incubated in the plate at rt for 1 h. The wells were washed with TBST and incubated with secondary antibody for 1 h at rt. For secondary antibodies, the following dilutions were carried out with blocking buffer: anti-rabbit antibody (Jackson ImmunoResearch, #111-035-003), dilution was 1:2000; and anti-mouse antibody (Cell signaling technology, #7076), dilution was 1:1000.
After 1 h of incubation at rt, the wells were washed with TBST. ECL substrate (Pierce, #34080) was added at 30 μL per well and the plates were centrifuged at 2,000 rpm for 2 min. The signal was read using a PerkinElmer Envision Reader. The H3K27 methylation readouts were normalized using H3 signal and then percentage inhibition was calculated against the samples treated with DO. The data were fit to a dose response curve using the program Helios to get the IC50 values of the test compound.

Sequence of wild type PRC2 (wtPRC2) complex (Q15910 whole entry): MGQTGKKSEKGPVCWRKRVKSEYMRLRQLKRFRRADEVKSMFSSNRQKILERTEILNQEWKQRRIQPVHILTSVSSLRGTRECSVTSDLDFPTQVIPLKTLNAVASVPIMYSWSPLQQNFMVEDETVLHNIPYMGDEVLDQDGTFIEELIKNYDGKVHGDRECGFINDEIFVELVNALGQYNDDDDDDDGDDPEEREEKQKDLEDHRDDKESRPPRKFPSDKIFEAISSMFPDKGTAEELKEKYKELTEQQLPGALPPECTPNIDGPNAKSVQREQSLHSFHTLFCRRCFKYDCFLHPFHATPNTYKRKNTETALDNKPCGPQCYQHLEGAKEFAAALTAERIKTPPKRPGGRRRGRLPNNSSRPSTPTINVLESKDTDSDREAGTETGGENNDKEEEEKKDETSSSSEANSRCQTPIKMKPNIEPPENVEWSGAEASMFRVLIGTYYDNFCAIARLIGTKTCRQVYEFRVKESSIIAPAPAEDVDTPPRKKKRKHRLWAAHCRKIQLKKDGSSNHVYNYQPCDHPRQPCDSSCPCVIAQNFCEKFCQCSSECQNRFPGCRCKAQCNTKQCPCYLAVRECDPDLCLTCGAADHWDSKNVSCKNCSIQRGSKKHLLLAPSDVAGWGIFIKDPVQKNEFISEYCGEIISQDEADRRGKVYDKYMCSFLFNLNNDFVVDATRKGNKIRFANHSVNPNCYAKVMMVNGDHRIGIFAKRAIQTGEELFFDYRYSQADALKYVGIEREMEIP
Sequence of wild type PRC2 (wtPRC2) complex (O75530 whole entry partner): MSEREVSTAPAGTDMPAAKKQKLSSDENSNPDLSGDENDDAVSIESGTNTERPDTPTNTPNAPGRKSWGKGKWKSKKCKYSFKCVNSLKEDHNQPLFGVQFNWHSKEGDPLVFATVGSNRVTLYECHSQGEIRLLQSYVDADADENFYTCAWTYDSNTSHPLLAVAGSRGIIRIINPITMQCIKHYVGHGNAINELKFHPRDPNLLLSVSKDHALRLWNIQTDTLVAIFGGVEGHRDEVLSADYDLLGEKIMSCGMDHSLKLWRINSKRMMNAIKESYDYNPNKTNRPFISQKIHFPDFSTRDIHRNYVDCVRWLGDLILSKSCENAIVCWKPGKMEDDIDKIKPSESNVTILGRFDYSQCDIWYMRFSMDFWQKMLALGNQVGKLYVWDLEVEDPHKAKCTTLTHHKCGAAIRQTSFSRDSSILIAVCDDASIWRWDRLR
Sequence of wild type PRC2 (wtPRC2) complex (Q15022 whole entry partner): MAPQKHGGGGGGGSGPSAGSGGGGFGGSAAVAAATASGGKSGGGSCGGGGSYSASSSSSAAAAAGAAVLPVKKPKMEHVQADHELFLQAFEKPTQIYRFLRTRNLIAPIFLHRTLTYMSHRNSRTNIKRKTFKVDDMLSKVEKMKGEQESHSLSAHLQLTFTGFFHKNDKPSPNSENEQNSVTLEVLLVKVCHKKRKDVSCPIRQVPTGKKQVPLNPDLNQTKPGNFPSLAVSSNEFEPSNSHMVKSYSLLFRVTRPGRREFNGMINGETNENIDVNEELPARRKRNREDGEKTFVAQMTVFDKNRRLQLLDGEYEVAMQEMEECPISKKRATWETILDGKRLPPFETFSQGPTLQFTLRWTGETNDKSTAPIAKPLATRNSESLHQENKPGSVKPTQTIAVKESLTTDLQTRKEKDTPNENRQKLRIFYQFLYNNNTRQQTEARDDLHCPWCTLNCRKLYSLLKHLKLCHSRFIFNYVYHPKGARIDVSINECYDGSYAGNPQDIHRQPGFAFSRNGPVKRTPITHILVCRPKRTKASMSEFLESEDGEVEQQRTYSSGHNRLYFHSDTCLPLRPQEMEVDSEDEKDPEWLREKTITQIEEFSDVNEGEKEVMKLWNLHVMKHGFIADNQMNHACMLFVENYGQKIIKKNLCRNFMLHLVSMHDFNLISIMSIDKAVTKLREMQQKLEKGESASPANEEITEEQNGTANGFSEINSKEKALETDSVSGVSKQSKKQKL

IC50 [1] | SMILES | IC50 ([2]; Homo sapiens, G-401, 48 h) | IC50 [2]
< 50 nM | Cc1ccc2ccc(N[C@H]3CC[C@H](CNc4ncc([C@H](C)C(=O)NC5COC5)cn4)CC3)nc2c1Cl (single isomer, unassigned) [Example 13, (S)-2-(2-((((1r,4S)-4-((8-chloro-7-methylquinolin-2-yl)amino)cyclohexyl)methyl)amino)pyrimidin-5-yl)-N-(oxetan-3-yl)propanamide; or (R)-2-(2-((((1r,4R)-4-((8-chloro-7-methylquinolin-2-yl)amino)cyclohexyl)methyl)amino)pyrimidin-5-yl)-N-(oxetan-3-yl)propanamide] |  | 
< 50 nM | Cc1ccc2ccc(N[C@H]3CC[C@H](CNc4ncc(CC(=O)N(C)C5COC5)cn4)CC3)nc2c1Cl [Example 2, 2-(2-((((1r,4r)-4-((8-chloro-7-methylquinolin-2-yl)amino)cyclohexyl)methyl)amino)pyrimidin-5-yl)-N-methyl-N-(oxetan-3-yl)acetamide] | < 10 nM | 
< 50 nM | Cc1ccc2ccc(N[C@H]3CC[C@H](CNc4ncc(C(C)(O)C(=O)NC5COC5)cn4)CC3)nc2c1Cl (some centres unmarked) [Example 4, 2-(2-((((1r,4r)-4-((8-chloro-7-methylquinolin-2-yl)amino)cyclohexyl)methyl)amino)pyrimidin-5-yl)-2-hydroxy-N-(oxetan-3-yl)propanamide] | > 100 nM | 
< 50 nM | Cc1ccc2ccc(N[C@H]3CC[C@H](CNc4ncc(C(O)C(=O)NC5COC5)cn4)CC3)nc2c1Cl (some centres unmarked) [Example 9, 2-(2-((((1r,4r)-4-((8-chloro-7-methylquinolin-2-yl)amino)cyclohexyl)methyl)amino)pyrimidin-5-yl)-2-hydroxy-N-(oxetan-3-yl)acetamide] | < 10 nM | 
< 50 nM | Cc1ccc2ccc(N[C@H]3CC[C@H](CNc4ccc(CC(=O)NC5COC5)cn4)CC3)nc2c1Cl [Example 15, 2-(6-((((1r,4r)-4-((8-chloro-7-methylquinolin-2-yl)amino)cyclohexyl)methyl)amino)pyridin-3-yl)-N-(oxetan-3-yl)acetamide] | < 10 nM | 
< 50 nM | Cc1ccc2ccc(N[C@H]3CC[C@H](CNc4ncc(C(CO)C(=O)NC5COC5)cn4)CC3)nc2c1Cl (some centres unmarked) [Example 6, 2-(2-((((1r,4r)-4-((8-chloro-7-methylquinolin-2-yl)amino)cyclohexyl)methyl)amino)pyrimidin-5-yl)-3-hydroxy-N-(oxetan-3-yl)propanamide] | < 10 nM | 
< 50 nM | Cc1ccc2ccc(N[C@H]3CC[C@H](CNc4ncc(C(C)C(=O)NC5COC5)cn4)CC3)nc2c1Cl (some centres unmarked) [Example 12, 2-(2-((((1r,4r)-4-((8-chloro-7-methylquinolin-2-yl)amino)cyclohexyl)methyl)amino)pyrimidin-5-yl)-N-(oxetan-3-yl)propanamide] | < 10 nM | 
< 50 nM | Cc1ccc2ccc(N[C@H]3CC[C@H](CNc4ncc([C@H](O)C(=O)NC5COC5)cn4)CC3)nc2c1Cl (single isomer, unassigned) [Example 11, (S)-2-(2-((((1r,4S)-4-((8-chloro-7-methylquinolin-2-yl)amino)cyclohexyl)methyl)amino)pyrimidin-5-yl)-2-hydroxy-N-(oxetan-3-yl)acetamide; or (R)-2-(2-((((1r,4R)-4-((8-chloro-7-methylquinolin-2-yl)amino)cyclohexyl)methyl)amino)pyrimidin-5-yl)-2-hydroxy-N-(oxetan-3-yl)acetamide] |  | < 10 nM
< 50 nM | Cc1ccc2ccc(N[C@H]3CC[C@H](CNc4ncc(CC(=O)NC5COC5)cn4)CC3)nc2c1Cl [Example 1, 2-(2-((((1R,4R)-4-((8-chloro-7-methylquinolin-2-yl)amino)cyclohexyl)methyl)amino)pyrimidin-5-yl)-N-(oxetan-3-yl)acetamide] | < 10 nM | 
< 50 nM | Cc1ccc2ccc(N[C@H]3CC[C@H](CNc4ncc(C(F)(F)C(=O)NC5COC5)cn4)CC3)nc2c1Cl [Example 3, 2-(2-((((1r,4r)-4-((8-chloro-7-methylquinolin-2-yl)amino)cyclohexyl)methyl)amino)pyrimidin-5-yl)-2,2-difluoro-N-(oxetan-3-yl)acetamide] | < 10 nM | 
< 50 nM | Cc1ccc2ccc(N[C@H]3CC[C@H](CNc4ncc([C@H](C)C(=O)NC5COC5)cn4)CC3)nc2c1Cl (single isomer, unassigned) [Example 14, (S)-2-(2-((((1r,4S)-4-((8-chloro-7-methylquinolin-2-yl)amino)cyclohexyl)methyl)amino)pyrimidin-5-yl)-N-(oxetan-3-yl)propanamide; or (R)-2-(2-((((1r,4R)-4-((8-chloro-7-methylquinolin-2-yl)amino)cyclohexyl)methyl)amino)pyrimidin-5-yl)-N-(oxetan-3-yl)propanamide] |  | 
< 50 nM | Cc1ccc2ccc(N[C@H]3CC[C@H](CNc4ncc(C(C#N)C(=O)NC5COC5)cn4)CC3)nc2c1Cl (some centres unmarked) [Example 5, 2-(2-((((1r,4r)-4-((8-chloro-7-methylquinolin-2-yl)amino)cyclohexyl)methyl)amino)pyrimidin-5-yl)-2-cyano-N-(oxetan-3-yl)acetamide] | < 10 nM | 
50 to 100 nM | Cc1ccc2ccc(N[C@H]3CC[C@H](CNc4ncc([C@H](O)C(=O)NC5COC5)cn4)CC3)nc2c1Cl (single isomer, unassigned) [Example 10, (S)-2-(2-((((1r,4S)-4-((8-chloro-7-methylquinolin-2-yl)amino)cyclohexyl)methyl)amino)pyrimidin-5-yl)-2-hydroxy-N-(oxetan-3-yl)acetamide; or (R)-2-(2-((((1r,4R)-4-((8-chloro-7-methylquinolin-2-yl)amino)cyclohexyl)methyl)amino)pyrimidin-5-yl)-2-hydroxy-N-(oxetan-3-yl)acetamide] | 10 to 100 nM | 
50 to 100 nM | Cc1ccc2ccc(N[C@H]3CC[C@H](CNc4ncc([C@@H](CO)C(=O)NC5COC5)cn4)CC3)nc2c1Cl (single isomer, unassigned) [Example 7, (S)-2-(2-((((1r,4S)-4-((8-chloro-7-methylquinolin-2-yl)amino)cyclohexyl)methyl)amino)pyrimidin-5-yl)-3-hydroxy-N-(oxetan-3-yl)propanamide; or (R)-2-(2-((((1r,4R)-4-((8-chloro-7-methylquinolin-2-yl)amino)cyclohexyl)methyl)amino)pyrimidin-5-yl)-3-hydroxy-N-(oxetan-3-yl)propanamide] | 10 to 100 nM | 

From patent US12473273B2, “Quinoline compounds and compositions for inhibiting EZH2” (Novartis AG, priority 2020, dated 2025)
